Literature values as cited in patent publication EP0084011B1, “Quinoline carboxylic acid complexes with guanidinium carbonate and guanidine” (Merck & Co., Inc., priority 1982, dated 1983).
Converted amounts (≈) assume the structure as drawn.

Q: Which results are given for `CCn1cc(C(=O)O)c(=O)c2cc(F)c(N3CCNCC3)cc21` [Parent, 1-ethyl-6-fluoro-1,4-dihydro-4-oxo-7-(1-piperazinyl)-3-quinoline carboxylic acid]?
A: Solubility (in water, 25 °C, reported water solubility of the parent compound): 200 µg/mL (≈ 626 µM); water solubility (pH range of 6-10, background statement): very low water solubility
